Reference: patent US8871264B2, “Immediate release tablet formulations” (AstraZeneca AB, priority 2009, dated 2014)
Like-named read-outs stand apart in the source and are kept apart here.

How the values were obtained:
[1] = phosphate buffer pH 6.8, 37° C., 75 rpm, n=6; for Dissoln. % 10 min: tablets of Example 12, 10 min; for Dissoln. % 20 min: tablets of Example 12, 20 min; for Dissoln. % 30 min: tablets of Example 12, 30 min; for Dissoln. % 45 min: tablets of Example 12, 45 min; for Dissoln. % 75 min: tablets of Example 12, 75 min; for Dissolution % 10 min: tablets of Example 13, 10 min; for Dissolution % 20 min: tablets of Example 13, 20 min; for Dissolution % 30 min: tablets of Example 13, 30 min; for Dissolution % 45 min: tablets of Example 13, 45 min; for Dissoln % 75 min: tablets of Example 13, 75 min
[2] = system: type II diabetic patients; conditions: for adjusted mean change in HbA1c from baseline: after 24 weeks; for adjusted mean change in HbA1c from baseline / adjusted mean change in FPG from baseline at Week 24: type 2 diabetes patients; for change in total body weight: at 24 weeks
Method: The data represent findings from a randomized, double-blind, placebo-controlled study of 546 individuals with type 2 diabetes whose HbA1c was greater than or equal to 7.0 percent and less than or equal to 10 percent at baseline. […] Patients in all arms also received metformin (greater than or equal to 1500 mg/d). […] Exploratory endpoints included body weight decrease of greater than or equal to 5 percent or greater than or equal to 10 percent as well as body weight percent change from baseline.

[3] = combination of metformin and dapagliflozin, 24 weeks, compared to placebo plus metformin
[4] = dapagliflozin 2.5 mg plus metformin
[5] = dapagliflozin 5 mg plus metformin
[6] = dapagliflozin 10 mg plus metformin

Dissoln. % 10 min [1] [%] | Dissoln. % 20 min [1] [%] | Dissoln. % 30 min [1] [%] | Dissoln. % 45 min [1] [%] | Dissoln. % 75 min [1] [%] | Dissolution % 10 min [1] [%] | Dissolution % 20 min [1] [%] | Dissolution % 30 min [1] [%] | Dissolution % 45 min [1] [%] | Dissoln % 75 min [1] [%] | Compound | further results
41 | 80 | 97 | 100 | 100 | 41 | 81 | 98 | 100 | 100 | CN(C)C(=N)N=C(N)N [Metformin] | 
38 | 78 | 96 | 99 | 99 | 37 | 77 | 95 | 97 | 97 | CCOc1ccc(Cc2cc([C@@H]3O[C@H](CO)[C@@H](O)[C@H](O)[C@H]3O)ccc2Cl)cc1 [Dapagliflozin, (2S,3R,4R,5S,6R)-2-(4-chloro-3-(4-ethoxybenzyl)phenyl)-6-(hydroxymethyl)tetrahydro-2H-pyran-3,4,5-triol] | fasting plasma glucose (FPG) levels [2, 3]: reduced; glycosylated hemoglobin levels (HbA1c) [2, 3]: reduced; mean reductions in body weight ([2]; compared to individuals taking placebo, 24 weeks): statistically greater mean reductions; patients achieving weight losses greater than or equal to 5 percent ([2]; compared to placebo, exploratory endpoint, 24 weeks): more patients; adjusted mean change in HbA1c from baseline [2, 4]: −0.67%; change in total body weight [2, 4]: -2.21 kg; adjusted mean change in FPG from baseline at Week 24 [2, 4]: -17.8 mg/dL; adjusted mean change in HbA1c from baseline [2, 5]: −0.70%; change in total body weight [2, 5]: -3.04 kg; adjusted mean change in HbA1c from baseline [2, 6]: −0.84%; change in total body weight [2, 6]: -2.86 kg; adjusted mean change in FPG from baseline at Week 24 [2, 6]: −23.5 mg/dL/dl
